What was measured:
GB5 cells = assay: Clonal expansion (clonal proliferation) of GB5; assay type: cell-based, human
Protocol: FIG. 2: Compounds 9a-b and 18a-b effect on stemness marker expression, clonal expansion and mitosis in GB5 cells. (A) NESTIN expression was assessed by immunofluorescence in GB5 treated with increasing amount of Compounds 9a-b and 18a. The number of NESTIN positive cells was counted for each treatment and express as percentage of the control (100%). The results are the meaning of at least two separate experiments. […] (C) Clonal expansion analysis was performed with GB5 cells as described in the material and method section. Two and three weeks later, the number of spheroids is counted and reported as percentage of the initial number of cells in the well. The results are the meaning of a minimum of two separate experiments. (D) The number of mitosis in the culture was determined by the detection of the number of cells positive for histone H3 phosphorylated on ser-10 (H3-ser10). H3-ser10 expression was assessed by immunofluorescence in GB5 treated with increasing amount of Compounds 9a-b and 18a. The number of positive cells was counted for each treatment and express as percentage of the control (100%). The results are the meaning of at least two separate experiments.
Clonal proliferation: TG6 and GB5 were seeded at 10 cells/well in 96 wells plate in NS34+ medium alone or containing growing concentration of Compounds 9a-b and 18a-b. Immediately after seeding, the real number of cells in the well was determined by direct count. Two and three weeks later, the resulting number of spheroids in each well was evaluated by a direct count. The % of clonal efficiency was calculated in dividing […].
It was further investigated the effects of selected compounds on GSC clonal expansion as well as their capacity of mitosis (FIGS. 2B and C). Compounds 9a-b and 18a treatment altered GSC clonal expansion and mitosis. The most efficient inhibition of clonal expansion was provided by Compound 9a treatment (IC50<10 uM) while both Compounds 9a-b were the most efficient for mitosis inhibition (IC50<10 uM) (FIGS. 2C and D).

[1] = system: GSC expressing a luciferase gene (GB1-luc) brain tumors; assay: Orthotopic GB1-luc xenograft, treatment of already formed tumors; assay type: in vivo, nude mice; conditions: 7.5 mg/kg three times a week, live imaging, vs DMSO; 11th week P value=0,017
Protocol: FIG. 3: Nude mice were orthotopically xenografted by luminescent patient derived GSC. (A-B) Two weeks following injections, mice were intraperitoneally injected with 10 mg/kg (n=4), 7.5 mg/kg (n=4) or 5 mg/kg (n=4) of Compound 9a or vehicle alone as control (ctl n=10). A) graphical representation of the average of tumor growth in the control group (n=10) and in each Compound 9a treated groups. B) Survival of the whole population of mice of the untreated and treated groups were compared using a log rank test according to Kaplan Meier method. (R command, see World Wide Web: biostatgv.sentiweb.fr/?module=tests/surv). The solid line represents the survival rate of control untreated mice. The dotted line represents the survival rate of mice treated by compound 9a. C) Mice treatment with compound 9a when the tumors were already formed. Tumor growth representation in mice, treated either with DMSO (control: -♦-) or Compound 9a (-▪-). Tumor growth was controlled every week by live imaging. The solid line represents the tumor growth in control untreated mice. The dotted line represents the tumor growth in mice treated by compound 9a.
To further determine whether Compound 9a might also alter tumor growth of tumors that were already formed before treatment, 50000 GSC expressing a luciferase gene (GB1-luc) for luminescent live imaging were injected in the brain of 12 nude mice. […]

GB5 = assay: XTT toxicity assay on GSC (GB5); assay type: cell-based
Protocol: (§1) FIG. 4: Determination of compound toxicity on GSC and normal human cells. (A) GB5 were incubated with growing concentration of Compounds 9a-b and 18a. (B) human normal neural stem cell (NNSC), human normal kidney cells (NHEK), human normal hepatocytes (HEPRG) and (C) human endothelial cells (HUVEC) were treated with growing concentration of Compound 9a. 7 days later, the cells were subjected to an XTT assays as described in the method section. The results are the meaning of at least two separate experiments. Cell death was confirmed by trypan blue staining (not shown).
II—XTT assay: TG6 and GB5 were seeded at 2000 cells/well in 96 wells plate in NS34+ alone or containing 10, 20, 25, 50 and 100 uM of Compounds 9a-b and 18a-b. Cultures were incubated 4 days and the cell proliferation was evaluated as indicated by the manufacturer.
(§2) V—Toxicity tests: NNSC, GB5, TG6, HEK293, and HepaRG, HUVEC were seeded at 2000 cells/well in 96 wells plate in their respective culture mediums alone or containing growing concentration from 10 to 500 uM of Compounds 9a-b. Cultures were incubated 4 days and the cellular toxicity has been evaluated by XTT assays. Cell viability has been also assessed by counting living and dead cells with trypan blue staining.
XTT assays allows, through cell metabolism measurement, to determine a cytotoxic/cytostatic effects. Compounds 9a-b and 18a were tested for their eventual toxicity by XTT assays as described in the material and method section. At the working concentrations 10 to 25 uM, the compounds are not toxic for GSC (FIG. 4A). […] Compound 9a toxicity was further tested on normal neural stem cells (NNSC), human kidney (NHEK), human hepatocytes (HEPRG) and human endothelial cells (HUVEC). The compound is not toxic on NNSC, NHEK, HEPRG and HUVEC cells when used between 10 to 50 uM. At 100 uM and above, Compound 9a was toxic (FIG. 4).

[2] = system: normal neural stem cells (NNSC); assay: XTT toxicity assay on normal neural stem cells; assay type: cell-based
Protocol: as §1, §2
XTT assays allows, through cell metabolism measurement, to determine a cytotoxic/cytostatic effects. Compounds 9a-b and 18a were tested for their eventual toxicity by XTT assays as described in the material and method section. At the working concentrations 10 to 25 uM, the compounds are not toxic for GSC (FIG. 4A). […]

[3] = system: human hepatocytes (HEPRG); assay: XTT toxicity assay on human hepatocytes; assay type: cell-based
Protocol: as §1
HepaRG™ are terminally differentiated hepatic cells derived from a human hepatic progenitor cell that retains many characteristics of primary human hepatocytes. HepaRG were grown in William's E Medium supplemented with Tox medium supplement and glutamax.
as §2
XTT assays allows, through cell metabolism measurement, to determine a cytotoxic/cytostatic effects. […]

## NCCCCNCCCNC(=O)c1csc(-c2csc(CCNC(=O)CCc3cn(CC4OC(OC5C(O)C(N)CC(N)C5OC5OC(CN)C(O)C(O)C5N)C(O)C4OC4OC(CN)C(O)C(O)C4N)nn3)n2)n1 (stereo not drawn) [Compound 9a, N-(3-((4-Aminobutyl)amino)propyl)-2′-(2-(3-(1-methyl-1H-1,2,3-triazol-4-yl)propanamido)ethyl)-[2,4′-bithiazole]-4-carboxamide-neomycin]
GB5 cells; GB5, spheroids counted after two and three weeks
  GSC clonal expansion: altered
GB5 cells; Homo sapiens, GB5, read-out: inhibition of clonal expansion IC50
  IC50: < 10 µM
[1]
  growth of tumors already formed before treatment: repressed tumor growth
GB5; GB5, 50 uM and higher
  toxicity for GSC (XTT): relative toxicity
GB5; GB5, 10 to 25 uM
  toxicity for GSC (XTT): not toxic
[2]; 100 uM and above
  toxicity (XTT): toxic
[2]; between 10 to 50 uM
  toxicity (XTT): not toxic
[3]; 100 uM and above
  toxicity (XTT): toxic
[3]; between 10 to 50 uM
  toxicity (XTT): not toxic
